Results from PMC6556873, “Rapid Covalent-Probe Discovery by Electrophile-Fragment Screening” (Journal of the American Chemical Society, 2019).
Where two headings read alike, the source gives them in different places.

What was measured:
[1] = biological target: T1, BSA (Bos taurus, UniProt P02769); set-up: Intact protein LC/MS covalent labelling, fragments in pools of five, 200 uM each, 4 °C; settings: 24 h, 4 °C, pool of five; 200 µM; covalent
T1 construct: gene ALB

[2] = biological target: T2, NNMT (hNNMT) (Homo sapiens, UniProt P40261); set-up: Intact protein LC/MS covalent labelling, fragments in pools of five, 200 uM each, 4 °C; settings: 24 h, 4 °C, pool of five; 200 µM; covalent
T2 construct: wild type, N-terminal His6 tag kept (no cleavage described), E. coli, construct 31248 Da
T2 sequence (P40261 1-264): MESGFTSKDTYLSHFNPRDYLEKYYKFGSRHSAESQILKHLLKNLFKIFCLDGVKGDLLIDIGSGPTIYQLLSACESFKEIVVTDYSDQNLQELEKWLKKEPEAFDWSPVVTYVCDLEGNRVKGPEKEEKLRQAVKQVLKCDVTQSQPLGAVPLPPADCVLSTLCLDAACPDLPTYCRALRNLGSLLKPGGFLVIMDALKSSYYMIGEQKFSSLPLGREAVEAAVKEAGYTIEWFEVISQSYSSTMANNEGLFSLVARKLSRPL

[3] = biological target: T3, NUDT7 (Homo sapiens, UniProt P0C024); set-up: Intact protein LC/MS covalent labelling, fragments in pools of five, 200 uM each, 4 °C; settings: 24 h, 4 °C, pool of five; 200 µM; covalent
T3 construct: residues 14-235, E. coli, pNIC28-Bsa4, N-terminal His6 tag removed by TEV, construct 26672 Da
T3 sequence (P0C024 14-235): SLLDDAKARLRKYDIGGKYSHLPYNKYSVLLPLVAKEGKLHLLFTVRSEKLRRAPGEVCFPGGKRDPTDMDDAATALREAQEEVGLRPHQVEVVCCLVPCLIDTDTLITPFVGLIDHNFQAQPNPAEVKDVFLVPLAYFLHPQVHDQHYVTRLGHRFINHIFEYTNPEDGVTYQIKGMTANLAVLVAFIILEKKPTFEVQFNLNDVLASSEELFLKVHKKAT

[4] = biological target: T4, OTUB2 (OTUB2A) (Homo sapiens, UniProt Q96DC9); set-up: Intact protein LC/MS covalent labelling, fragments in pools of five, 200 uM each, 4 °C; settings: 24 h, 4 °C, pool of five; 200 µM; covalent
T4 construct: full length residues 1-234, E. coli BL21(DE3)-R3, His tag removed by TEV, construct 27312 Da
T4 sequence (Q96DC9 1-234): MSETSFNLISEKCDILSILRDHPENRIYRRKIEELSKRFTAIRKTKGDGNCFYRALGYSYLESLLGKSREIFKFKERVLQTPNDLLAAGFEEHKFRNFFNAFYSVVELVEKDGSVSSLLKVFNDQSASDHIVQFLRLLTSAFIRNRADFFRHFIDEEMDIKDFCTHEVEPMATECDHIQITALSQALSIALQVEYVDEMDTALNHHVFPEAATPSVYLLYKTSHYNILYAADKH

[5] = biological target: T5, PCAF (Homo sapiens, UniProt Q92831); set-up: Intact protein LC/MS covalent labelling, fragments in pools of five, 200 uM each, 4 °C; settings: 24 h, 4 °C, pool of five; 200 µM; covalent
T5 construct: gene KAT2B
T5 sequence (Q92831 whole entry, the tested form may be a part): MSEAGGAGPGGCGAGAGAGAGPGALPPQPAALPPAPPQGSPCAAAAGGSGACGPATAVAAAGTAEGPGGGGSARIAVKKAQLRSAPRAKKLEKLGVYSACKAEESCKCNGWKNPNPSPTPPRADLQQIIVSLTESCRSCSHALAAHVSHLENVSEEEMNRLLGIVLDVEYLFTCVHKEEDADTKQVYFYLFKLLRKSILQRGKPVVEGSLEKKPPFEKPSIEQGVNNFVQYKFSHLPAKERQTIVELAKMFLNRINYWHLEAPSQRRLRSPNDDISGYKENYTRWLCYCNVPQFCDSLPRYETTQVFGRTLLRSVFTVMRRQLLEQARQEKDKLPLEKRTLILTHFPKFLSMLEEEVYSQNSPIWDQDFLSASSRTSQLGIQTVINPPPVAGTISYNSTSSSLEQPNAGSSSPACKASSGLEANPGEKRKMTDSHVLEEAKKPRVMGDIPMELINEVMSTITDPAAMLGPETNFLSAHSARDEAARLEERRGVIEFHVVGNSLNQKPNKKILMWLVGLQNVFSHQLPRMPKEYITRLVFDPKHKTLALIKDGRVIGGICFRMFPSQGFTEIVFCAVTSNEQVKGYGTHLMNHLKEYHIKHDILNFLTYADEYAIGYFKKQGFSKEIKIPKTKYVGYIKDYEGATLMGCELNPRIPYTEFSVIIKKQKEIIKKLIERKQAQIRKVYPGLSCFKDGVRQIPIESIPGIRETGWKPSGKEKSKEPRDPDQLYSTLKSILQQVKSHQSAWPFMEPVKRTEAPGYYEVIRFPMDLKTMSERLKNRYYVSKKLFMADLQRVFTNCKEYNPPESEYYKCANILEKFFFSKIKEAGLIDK

[6] = in vitro; set-up: species or system CCD841, HEK293; settings: human, hb2 cells, read-out: HB-2 Cells Viability (%)
[7] = in vitro; set-up: species or system HB2, HEK293; settings: human, ccd841 cells
[8] = in vitro; set-up: species or system HB2, CCD841; settings: human, hek293 cells

T1 sequence (P02769 whole entry, the tested form may be a part): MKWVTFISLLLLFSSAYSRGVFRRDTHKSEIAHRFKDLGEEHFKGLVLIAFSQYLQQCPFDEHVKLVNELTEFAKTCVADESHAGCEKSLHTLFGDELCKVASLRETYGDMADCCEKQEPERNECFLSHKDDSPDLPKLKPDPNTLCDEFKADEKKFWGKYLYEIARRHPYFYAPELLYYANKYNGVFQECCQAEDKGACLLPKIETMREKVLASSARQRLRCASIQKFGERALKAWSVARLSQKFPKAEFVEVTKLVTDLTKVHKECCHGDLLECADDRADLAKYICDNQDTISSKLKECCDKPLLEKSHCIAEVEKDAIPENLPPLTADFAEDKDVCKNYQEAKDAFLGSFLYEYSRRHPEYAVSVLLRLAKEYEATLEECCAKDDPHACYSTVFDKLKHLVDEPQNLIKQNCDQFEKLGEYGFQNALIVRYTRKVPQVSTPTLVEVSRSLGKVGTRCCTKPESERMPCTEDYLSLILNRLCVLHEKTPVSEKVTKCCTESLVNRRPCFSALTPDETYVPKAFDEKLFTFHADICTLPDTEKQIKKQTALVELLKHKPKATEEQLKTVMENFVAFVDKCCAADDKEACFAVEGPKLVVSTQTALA

SMILES | BSA [1] | NNMT [2] | NUDT7 [3] | OTUB2 [4] | PCAF [5] | viability at 48 h, 10 µM [6] [%] | viability at 48 h, 10 µM [7] [%] | viability at 48 h, 10 µM [8] [%]
C#CCN1CCN(C(=O)CCl)CC1.Cl [PCM-0102811] | 0 | 0 | 0 | 0 | 0 | 92.5 | 84.9 | 72.2
C#Cc1cccc(NC(=O)NC(=O)CCl)c1 [PCM-0102813] | 0 | 0 | 0.13 | 0.14 | 0 | 74.1 | 82.2 | 73.2
Cl.O=C(CCl)N1CCN(Cc2ccc3c(c2)CCO3)CC1 [PCM-0102814] | 0.11 | 0.24 | 0 | 0 | 0 | 22.2 | 58.5 | 37.6
CC(NC(=O)CCl)c1ccc2c(c1)CC(=O)N2 (stereo not shown) [PCM-0102816] | 0 | 0 | 0.22 | 0.29 | 0 | 94.8 | 86 | 74.8
Cc1cccc(CNC(=O)CCl)c1 [PCM-0102821] | 0 | 0.29 | 0 | 0.86 | 0 | 99.7 | 80.7 | 87.5
O=C(CCl)NC(=O)CN1CCCC1=O [PCM-0102824] | 0 | 0 | 0 | 0 | 0 | 105 | 111 | 110
Cc1ccccc1CC(=O)NNC(=O)CCl [PCM-0102829] | 0 | 0 | 0 | 0.3 | 0 | 90.9 | 83.9 | 104
O=C(CCl)N=c1sccn1Cc1cccc2ccccc12 [PCM-0102842] | 0 | 0 | 0 | 0 | 0 | 8.4 | 4.2 | 5.2
Cc1ccc(S(=O)(=O)NC(=O)CCl)cc1 [PCM-0102850] | 0 | 0 | 0 | 0.13 | 0 | 101 | 114 | 81.4
CC(C)(C)CCNC(=O)CCl [PCM-0102853] | 0 | 0.24 | 0 | 0 | 0 | 99.7 | 91.6 | 102
N#CC1(NC(=O)CCl)CCC1 [PCM-0102854] | 0 | 0 | 0.09 | 0 | 0 | 90 | 81.1 | 93.1
N#Cc1cccc(C(=O)NNC(=O)CCl)c1 [PCM-0102857] | 0 | 0 | 0 | 0.41 | 0 | 103 | 82.6 | 102
CCOC(=O)N1CCN(C(=O)CCl)CC1 [PCM-0102861] | 0 | 0 | 0 | 0 | 0 | 114 | 109 | 82.6
O=C(CCl)NC1CCCC(C(F)(F)F)C1 (stereo not shown) [PCM-0102862] | 0 | 0.29 | 0 | 0.14 | 0 | 95 | 106 | 84
O=C(CCl)Nc1ccc2[nH]c(=O)[nH]c2c1 [PCM-0102866] | 0 | 0 | 0 | 0.3 | 0 | 77.3 | 73.7 | 27.5
CC1CCCN(C(=O)CCl)C1 (stereo not shown) [PCM-0102867] | 0 | 0 | 0 | 0 | 0 | 102 | 104 | 103
O=C(CCl)NC1CCOc2ccccc21 (stereo not shown) [PCM-0102871] | 0 | 0 | 0 | 0.44 | 0 | 92.9 | 87.1 | 69.5
COc1cc(=O)[nH]c(NC(=O)CCl)n1 [PCM-0102873] | 0.17 | 0 | 0 | 0 | 0 | 99.9 | 100 | 114
Cc1ccccc1CN1CCN(C(=O)CCl)CC1.Cl [PCM-0102876] | 0 | 0 | 0 | 0 | 0 | 31.1 | 69.2 | 38.1
C=CC(=O)NC(=O)Nc1ccccc1 [PCM-0102883] | 0 | 0 | 0 | 0 | 0 | 5.4 | 17.8 | 4
